Laboratory results published in PMC5441580, “GPR40 partial agonist MK-2305 lower fasting glucose in the Goto Kakizaki rat via suppression of endogenous glucose production” (PLoS ONE, 2017).
pEC50: −log10 of the molar value. Several values for one entry are separate records, joined by “and”; a condition that tells them apart may be missing. Identical values can stand only once.

Assays:
Rat PPARδ = target: T1, Rat PPARδ (Rattus norvegicus, UniProt Q62879); test: cell-based nuclear receptor profiling (Indigo Biosciences), PPARδ
T1 sequence (Q62879 1-440): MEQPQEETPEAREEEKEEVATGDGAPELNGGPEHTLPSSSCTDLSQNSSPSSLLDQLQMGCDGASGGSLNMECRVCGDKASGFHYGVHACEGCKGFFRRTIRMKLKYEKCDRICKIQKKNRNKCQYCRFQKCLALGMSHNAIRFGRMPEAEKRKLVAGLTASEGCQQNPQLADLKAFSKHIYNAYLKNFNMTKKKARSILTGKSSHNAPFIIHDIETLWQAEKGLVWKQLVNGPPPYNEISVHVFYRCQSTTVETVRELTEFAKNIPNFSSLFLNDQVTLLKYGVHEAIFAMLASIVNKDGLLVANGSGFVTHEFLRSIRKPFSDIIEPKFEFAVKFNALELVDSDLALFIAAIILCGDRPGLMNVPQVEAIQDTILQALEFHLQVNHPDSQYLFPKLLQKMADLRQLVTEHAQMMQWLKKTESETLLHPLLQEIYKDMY
Method: (§1) Rat PPARα, PPARδ, and PPARγ activities were determined by Indigo Biosciences (State College, PA) cell-based nuclear receptor profiling service.

GPR40 receptor = conditions: cited from earlier work
GK rats = test: 13C-labeled OGTT, 13C metabolites in liver and skeletal muscle; assay type: in vivo, rat; conditions: for 13C Labeled Metabolite, Ala C3 / 13C Labeled Metabolite, G6P C1 / 13C Labeled Metabolite, Glyc C1 / 13C Labeled Metabolite, Lac C3: [1-13C] glucose, acute treatment, individual animals
Method: GK rat OGTT procedures were followed as above. Animals were treated PO at 5 ml/kg with MK-2305 at 10 mg/kg or vehicle at time = -60 min. At time = 0, animals were challenged PO at 10 ml/kg dose volume with [1-^13C] glucose prepared in distilled water at 1 g/kg (Sigma-Aldrich). Blood glucose was measured pre-treatment and at t = 0, 20, 40, 60, 120 minutes post challenge. Following the blood glucose measurement at time = 120 min, animals were anesthetized with Isoflurane (Isothesia, Henry Schein, Dublin, OH) and samples of liver and skeletal muscle were collected. Tissue samples were processed using a methanol/water based extraction procedure as follows. Frozen tissue was weighed and added to tubes containing 80% methanol at a ratio of 100 mg tissue per mL 80% methanol. The samples were homogenized at 4°C using a Polytron homogenizer equipped with a 12 mm stainless steel head. Samples were then centrifuged at 25,000 rcf for 10 min at 4°C, the supernatant collected, and the pellet extracted again using an equivalent volume of 80% methanol. The supernatants from both extractions were pooled and the methanol evaporated under nitrogen. The samples were then reconstituted in 180 μl 0.1M sodium phosphate in D2O (pH 7.4) for NMR analysis. ^13C NMR of tissue extracts was performed on a 600 MHz Bruker NMR spectrometer (David H. Murdock Research Institute) using the following parameters: 45° pulse, D1 = 0.2 sec, NS = 3200 averages, ^1H broadband decoupling (WALTZ-16), acquisition time ~45 min. […] These NMR signals were integrated and converted to absolute units (μmoles) using ^13C NMR spectra from standard solutions of each metabolite of known concentration acquired under identical conditions. Glycogen is a primary site of glucose disposal in both liver and muscle, however glycogen was not preserved in our tissue extraction protocol. To quantify tissue ^13C-glycogen, a separate piece of tissue from each sample was analyzed. Briefly, tissue samples were saponified in hot KOH, and this was followed by glycogen precipitation with NaSO4 and ethanol, and then degradation with amyloglucosidase. The resulting glycogen-derived glucose solution was analyzed for total glucose using a glucose oxidase / horseradish peroxidase assay kit and fluorescence-based product detection according to the manufacturers’ instructions (BioVision Glycogen Assay Kit, Milpitas, CA).

[1] = protein binding assay in mouse plasma; assay type: in vitro ADME; conditions: read-out: free fraction
Rat PPARα = target: T2, Rat PPARα (Rattus norvegicus, UniProt P37230); test: cell-based nuclear receptor profiling (Indigo Biosciences), PPARα
T2 sequence (P37230 1-468): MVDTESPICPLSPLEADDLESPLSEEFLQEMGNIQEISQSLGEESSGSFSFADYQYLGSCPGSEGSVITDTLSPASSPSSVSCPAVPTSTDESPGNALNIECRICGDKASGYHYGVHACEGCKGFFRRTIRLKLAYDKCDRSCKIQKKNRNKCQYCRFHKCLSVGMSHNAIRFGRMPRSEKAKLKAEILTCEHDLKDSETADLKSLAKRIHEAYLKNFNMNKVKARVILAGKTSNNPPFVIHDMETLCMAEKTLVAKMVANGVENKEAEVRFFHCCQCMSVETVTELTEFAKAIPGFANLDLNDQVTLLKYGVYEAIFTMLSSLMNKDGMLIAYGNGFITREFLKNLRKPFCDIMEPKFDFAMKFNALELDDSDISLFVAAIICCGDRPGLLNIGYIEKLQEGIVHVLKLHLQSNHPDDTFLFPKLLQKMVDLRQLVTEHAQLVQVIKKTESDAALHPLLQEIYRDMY
Method: as §1

[2] = 10 mg/kg PO, [1-13C] glucose OGTT, GK rats

pEC50 (Rat PPARδ): < 5.00
% Activation (Rat PPARδ; @ 10 μM): -0.1 @ 10 μM % and -0.08%
% Effect (Rat PPARδ; Dose 0.309 nM): -0.01%
% Effect (Rat PPARδ; Dose 0.981 nM): 0.01%
% Effect (Rat PPARδ; Dose 3.11 nM): -0.001%
% Effect (Rat PPARδ; Dose 9.85 nM): -0.01%
% Effect (Rat PPARδ; Dose 31.2 nM): -0.01%
% Effect (Rat PPARδ; Dose 99 nM): 0.01%
% Effect (Rat PPARδ; Dose 314 nM): 0.00%
% Effect (Rat PPARδ; Dose 995 nM): -0.02%
% Effect (Rat PPARδ; Dose 3155 nM): -0.04%
% Effect (Rat PPARδ; Dose 10000 nM): -0.08%
fraction unbound [1]: 0.026
pEC50 (Rat PPARα): < 5.00
% Activation (Rat PPARα; @ 10 μM): -0.2 @ 10 μM % and -0.24%
% Effect (Rat PPARα; Dose 0.309 nM): -0.03%
% Effect (Rat PPARα; Dose 0.981 nM): -0.05%
% Effect (Rat PPARα; Dose 3.11 nM): -0.11%
% Effect (Rat PPARα; Dose 9.85 nM): -0.1%
% Effect (Rat PPARα; Dose 31.2 nM): -0.09%
% Effect (Rat PPARα; Dose 99 nM): -0.06%
% Effect (Rat PPARα; Dose 314 nM): -0.09%
% Effect (Rat PPARα; Dose 995 nM): -0.13%
% Effect (Rat PPARα; Dose 3155 nM): -0.18%
% Effect (Rat PPARα; Dose 10000 nM): -0.24%
SMILES: O=C1NC(=O)C(C2CCOc3cc(Oc4ccc(C(F)(F)F)cc4Cl)ccc32)S1 (stereo not shown) [MK-2305]
binding site on GPR40 (GPR40 receptor): binds to the same site as other GPR40 partial agonists such as AMG837 and TAK-875
effect on binding of AgoPAM's (GPR40 receptor): augments the binding of AgoPAM’s such as AM1638
effect on disposal of 13C-glucose into 13C-G6P, 13C-glycogen, 13C-lactate and 13C-alanine in liver (GK rats; [2]): significant decreases
effect on disposal of 13C-glucose into metabolites in muscle (GK rats; [2]): no significant effects
13C Labeled Metabolite, Ala C3 (GK rats): 0.07795 umoles/g liver and 0.1076 umoles/g liver and 0.03915 umoles/g liver and 0.01144 umoles/g liver and 0.01402 umoles/g liver and 0.02433 umoles/g liver and 0.05001 umoles/g liver and 0.007673 umoles/g liver
13C Labeled Metabolite, G6P C1 (GK rats): 0.02684 umoles/g liver and 0.01164 umoles/g liver and 0.007287 umoles/g liver and 0.01533 umoles/g liver and 0.00988 umoles/g liver and 0.01421 umoles/g liver and 0.01349 umoles/g liver and 0.0107 umoles/g liver
13C Labeled Metabolite, Glyc C1 (GK rats): 1.292 umoles/g liver and 0.3555 umoles/g liver and 0.1582 umoles/g liver and 0.4672 umoles/g liver and 0.1107 umoles/g liver and 0.1399 umoles/g liver and 0.3766 umoles/g liver and 0.2884 umoles/g liver
13C Labeled Metabolite, Lac C3 (GK rats): 0.03897 umoles/g liver and 0.06288 umoles/g liver and 0.02257 umoles/g liver and 0.01974 umoles/g liver and 0.01299 umoles/g liver and 0.02143 umoles/g liver and 0.0406 umoles/g liver and 0.007673 umoles/g liver
13C Labeled Metabolite, Ala C3 (GK rats; skeletal muscle): 0.1279 umoles/g muscle and 0.07989 umoles/g muscle and 0.1157 umoles/g muscle and 0.07123 umoles/g muscle
13C Labeled Metabolite, G6P C1 (GK rats; skeletal muscle): 0.05019 umoles/g muscle and 0.01903 umoles/g muscle and 0.04767 umoles/g muscle and 0.01045 umoles/g muscle and 0.004493 umoles/g muscle and 0.01768 umoles/g muscle and 0.003514 umoles/g muscle
13C Labeled Metabolite, Glyc C1 (GK rats; skeletal muscle): 0.2857 umoles/g muscle and 0.133 umoles/g muscle and 1.635 umoles/g muscle and 0.328 umoles/g muscle and 0.06707 umoles/g muscle and 0.1828 umoles/g muscle and 0.4005 umoles/g muscle
13C Labeled Metabolite, Lac C3 (GK rats; skeletal muscle): 0.2756 umoles/g muscle and 0.03448 umoles/g muscle and 0.06757 umoles/g muscle and 0.07739 umoles/g muscle and 0.08426 umoles/g muscle
